Experimental findings from patent US10034886B2, “GLP-1 receptor modulators” (Celgene International II SÀRL, priority 2014, dated 2018) are described below.

The assay concerns the target T1, GLP-1R (Homo sapiens, UniProt P43220).
T1 construct: host or cells: GLP-1R CRE-bla CHO-K1 cells
Description: EC20 GLP-1(9-36) PAM cAMP assay: dose response of compound in the presence of fixed concentration of GLP-1(9-36). Type of assay: cell-based. To be noted: GLP-1R CRE-bla CHO-K1 cells, read-out: EC20 GLP-1(9-36) PAM EC50. The method in brief: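 Positive allosteric modulation read as cAMP accumulation: compound titrations (12 points) combined with an EC20 level of GLP-1(9-36) on CHO-K1 GLP-1R CRE-bla cells, IBMX present, 30 min, 37 °C, pH 7.4 buffer. Luminescence converted to cAMP via standards; non-linear fit gave EC50 and Emax.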
Background: Changes in cAMP serve as a functional read-out for many G protein-coupled receptors.

Setting [1] is: dose response of compound in presence of fixed concentration of GLP-1(9-36).
The mark [2] stands for this setting: compound dose response with fixed concentration of GLP-1(9-36).

Where two headings read alike, the source gives them in different places.

T1 sequence (P43220 24-463): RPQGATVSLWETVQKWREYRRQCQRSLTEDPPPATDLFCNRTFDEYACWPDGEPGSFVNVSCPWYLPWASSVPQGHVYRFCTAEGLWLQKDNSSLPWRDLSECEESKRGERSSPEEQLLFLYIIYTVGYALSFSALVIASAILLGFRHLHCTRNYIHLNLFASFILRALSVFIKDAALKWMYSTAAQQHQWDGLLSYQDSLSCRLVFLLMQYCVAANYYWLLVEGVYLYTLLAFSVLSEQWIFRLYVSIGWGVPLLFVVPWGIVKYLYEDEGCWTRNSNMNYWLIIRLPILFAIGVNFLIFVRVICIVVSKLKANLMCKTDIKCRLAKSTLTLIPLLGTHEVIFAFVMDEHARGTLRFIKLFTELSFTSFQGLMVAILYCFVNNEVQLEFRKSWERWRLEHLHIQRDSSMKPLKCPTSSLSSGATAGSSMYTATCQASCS
T1 sequence (P01275 100-127 partner limits assumed): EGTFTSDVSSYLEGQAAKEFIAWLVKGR

`CCCCCCCOc1ccc(-c2cnc(-c3ccc(C[C@H](NC(=O)c4ncc(C(C)C)s4)C(=O)O)cc3)nc2)cc1` [Compound 148]: under setting [1], the EC50 fell in the range of 800 to 2500 nM.

For `CCCCOc1cc(-c2cnc(-c3ccc(C[C@H](NC(=O)c4ccc(C(C)(C)C)s4)C(=O)N[C@H](C)C(=O)O)cc3)nc2)cc(Cl)c1OC(C)C` [Compound 1039], the EC50 under setting [1] fell in the range of 800 to 2500 nM.

In the case of `CC(C)CCCOc1ccc(-c2cnc(-c3ccc(C[C@H](NC(=O)c4ccc(C(C)(C)C)nc4)C(=O)N4CC(C(=O)O)C4)cc3)nc2)cc1` [Compound 1231], the concentration giving a half-maximal response (EC50) under setting [2] is 800 to 2500 nM.

Take `CC(C)COc1ncc(-c2cnc(-c3ccc(C[C@H](NC(=O)c4ccc(C(C)(C)C)s4)C(=O)N[C@H](C)C(=O)O)cc3)nc2)cc1Cl` [Compound 1038]: the EC50 under setting [1] lay in the range of 2500 to 5000 nM. The same measure, in the same setting: with `CC(C)CCCCOc1ccc(-c2cnc(-c3ccc(C[C@H](NC(=O)c4ccc(C(C)(C)C)s4)C(=O)N4CC(C(=O)O)C4)cc3)nc2)cc1` [Compound 795] the figure was less than 800 nM; with `CC(C)(C)c1ccc(C(=O)N[C@@H](Cc2ccc(-c3ncc(N4CCC(C(C)(C)C)CC4)cn3)cc2)C(=O)NCCC(=O)O)cc1` [Compound 674], 5000 to 10000 nM; with `Cc1cc(C)cc(-c2cnc(-c3ccc(C[C@H](NC(=O)c4ccc(C(C)(C)C)s4)C(=O)N[C@H](C)C(=O)O)cc3)nc2)c1` [Compound 1042], 5000 to 10000 nM.

As to `CCCCCCOC1CN(c2cnc(-c3ccc(C[C@H](NC(=O)c4ccc(C(C)(C)C)s4)C(=O)N[C@H](C)C(=O)O)cc3)nc2)C1` [Compound 1273], the EC50 under setting [2] was 5000 to 10000 nM. For the molecule `CCCCCCCOc1ccc(-c2cnc(-c3ccc(C[C@H](NC(=O)c4ccc(C(C)(C)C)s4)C(=O)N4CC(C(=O)NS(=O)(=O)CC(=O)O)C4)cc3)nc2)cc1` [Compound 649], the EC50 under setting [1] lay in the range of 800 to 2500 nM. In the case of `CCCCCCCOc1ccc(-c2cnc(-c3ccc(C[C@H](NC(=O)c4ccc(N5CCCC5)cc4)C(=O)N[C@@H](C)C(=O)O)cc3)nc2)cc1` [Compound 870], the EC50 under setting [1] fell in the range of 800 to 2500 nM. In the case of `CC[C@H]1CC[C@H](c2ccc(-c3cnc(-c4ccc(C[C@H](NC(=O)c5ccc(OC(F)(F)F)cc5)C(=O)O)cc4)nc3)cc2)CC1` [Compound 1384], the EC50 under setting [2] lay within 800 to 2500 nM.

As for `CC[C@H]1CC[C@H](c2ccc(-c3cnc(-c4ccc(C[C@H](NC(=O)c5ccc(C(C)(C)C)s5)C(=O)N[C@H](C)C(=O)O)cc4)nc3)cc2)CC1` [Compound 1056, ((S)-2-(5-(tert-butyl)thiophene-2-carboxamido)-3-(4-(5-(4-((1r,4r)-4-ethylcyclohexyl)phenyl)pyrimidin-2-yl)phenyl)propanoyl)-D-alanine], the EC50 under setting [1] is less than 800 nM. Consider `CCCCCCCOc1ccc(-c2cnc(-c3ccc(C[C@H](NC(=O)Cc4ccc(OCCCC)cc4)C(=O)N4CC(C(=O)O)C4)cc3)nc2)cc1` [Compound 1102], for which, under setting [1], the concentration for a half-maximal effect (EC50) is 800 to 2500 nM. Still for that read-out and setting: with `CCCCCCCOc1ccc(-c2cnc(-c3ccc(C[C@H](NC(=O)c4ccc(C(F)(F)F)s4)C(=O)NC(C(=O)O)C(O)c4ccccc4)cc3)nc2)cc1` (stereo partly drawn) [Compound 948] the figure was 2500 to 5000 nM. Take `CC[C@H]1CC[C@H](c2ccc(-c3cnc(-c4ccc(C[C@H](NC(=O)c5ccc(C(C)(C)C)s5)C(=O)N[C@H](C(=O)O)[C@@H](C)O)cc4)nc3)cc2)CC1` [Compound 1327]: the EC50 under setting [2] is less than 800 nM.

`CC(C)CCCOc1ccc(-c2cnc(-c3ccc(C[C@H](NC(=O)c4ccc(C(C)(C)C)s4)C(=O)N[C@H](C)C(=O)O)cc3)nc2)cc1` [Compound 771]: under setting [1], the EC50 was in the range of 800 to 2500 nM.

In the case of `CCCCCCCOc1ccc(-c2cnc(-c3ccc(C[C@H](NC(=O)c4ccc(C(C)(C)C)cc4)C(=O)N4CC(C(=O)O)C4)cc3)nc2)cc1` [Compound 590, (S)-1-(2-(4-(tert-butyl)benzamido)-3-(4-(5-(4-(heptyloxy)phenyl)pyrimidin-2-yl)phenyl)propanoyl)azetidine-3-carboxylic acid], the concentration giving a half-maximal response (EC50) under setting [1] was less than 800 nM. For the molecule `C[C@@H](NC(=O)[C@H](Cc1ccc(-c2ncc(-c3ccc(C4CCCCC4)cc3)cn2)cc1)NC(=O)c1ccc(C(C)(C)C)s1)C(=O)O` [Compound 1282], the concentration giving a half-maximal response (EC50) under setting [2] was less than 800 nM.

What is called EC50 is the concentration giving half of the maximal effect.
